Measurements taken from PubChem BioAssay (NCI).
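Five compound concentrations were applied to cells in 96-well plates for 48 hours; endpoints were derived by simple linear interpolation of the resulting dose-response curve. TGI: concentration producing complete growth inhibition.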

How the values were obtained:
Assay in all cases: NCI anticancer screen, dose series, 48 h
HS 578T breast = test system: HS 578T breast
COLO 205 colon = test system: COLO 205 colon
SR leukemia = test system: SR leukemia
SK-MEL-2 melanoma = test system: SK-MEL-2 melanoma
CCRF-CEM leukemia = test system: CCRF-CEM leukemia
EKVX NSCLC = test system: EKVX NSCLC
UO-31 renal = test system: UO-31 renal
K-562 leukemia = test system: K-562 leukemia
LOX IMVI melanoma = test system: LOX IMVI melanoma
DU-145 prostate = test system: DU-145 prostate
SF-539 CNS = test system: SF-539 CNS
M14 melanoma = test system: M14 melanoma
CAKI-1 renal = test system: CAKI-1 renal
HT29 colon = test system: HT29 colon
KM12 colon = test system: KM12 colon
NCI-H522 lung = test system: NCI-H522 lung
HCT-15 colon = test system: HCT-15 colon
OVCAR-8 ovarian = test system: OVCAR-8 ovarian
MOLT-4 leukemia = test system: MOLT-4 leukemia
ACHN renal = test system: ACHN renal

| Compound | TGI (HS 578T breast) [µM] | TGI (COLO 205 colon) [µM] | TGI (SR leukemia) [µM] | TGI (SK-MEL-2 melanoma) [µM] | TGI (CCRF-CEM leukemia) [µM] | TGI (EKVX NSCLC) [µM] | TGI (UO-31 renal) [µM] | TGI (K-562 leukemia) [µM] | TGI (LOX IMVI melanoma) [µM] | TGI (DU-145 prostate) [µM] | TGI (SF-539 CNS) [µM] | TGI (M14 melanoma) [µM] | TGI (CAKI-1 renal) [µM] | TGI (HT29 colon) [µM] | TGI (KM12 colon) [µM] | TGI (NCI-H522 lung) [µM] | TGI (HCT-15 colon) [µM] | TGI (OVCAR-8 ovarian) [µM] | TGI (MOLT-4 leukemia) [µM] | TGI (ACHN renal) [µM] |
| --- | --- | --- | --- | --- | --- | --- | --- | --- | --- | --- | --- | --- | --- | --- | --- | --- | --- | --- | --- | --- |
| C/C(=N\NC(=S)NCc1ccccc1)c1nc2ncccc2[nH]1 | > 100 | 34.4 | > 100 | 36 | 19.2 | 8.51 | 11 | 41.5 | 21.4 | 24.5 | 20.8 | 19.8 | 61.2 | 12.8 | 21.5 | 32 | 37.2 | 26.8 | 17.5 | 52.9 |
| O=C(CCN1CCOCC1)C(=Cc1ccccc1)C(=O)CCN1CCOCC1 | – | 6.97 | – | 22.6 | 7.84 | 5.59 | 27.6 | 2.15 | 4.29 | – | 10 | – | 13.5 | 8.35 | 13 | 2.85 | 4.74 | 9.88 | 3.09 | – |
| COc1cc2oc(=O)ccc2cc1CC=C(C)C | > 100 | > 100 | 57.4 | > 100 | > 100 | > 100 | 97.9 | > 100 | > 100 | > 100 | > 100 | – | > 100 | 77.7 | > 100 | > 100 | – | > 100 | > 100 | > 100 |
| CCN(CC)CCN(C(=O)c1ccc(F)cc1)c1ccccc1N | > 10 | > 10 | > 10 | > 10 | > 10 | > 10 | > 10 | > 10 | > 10 | > 10 | > 10 | > 10 | > 10 | > 10 | > 10 | > 10 | > 10 | > 10 | > 10 | > 10 |
| CC(=O)NNc1nc(C)c(C(=O)NNC(=O)C(=O)Nc2c(C)cccc2C(C)(C)C)s1 | – | > 100 | > 100 | > 100 | 69.9 | > 100 | > 100 | > 100 | > 100 | – | > 100 | > 100 | > 100 | > 100 | > 100 | 57.1 | > 100 | > 100 | > 100 | > 100 |
| COC(=O)C1=C(C)N2CCOC2CC1c1ccccc1 (stereo not given) | – | > 100 | > 100 | > 100 | > 100 | > 100 | > 100 | > 100 | – | – | > 100 | > 100 | > 100 | > 100 | > 100 | – | – | > 100 | > 100 | > 100 |
| CN(C)CCN(C(=Nc1ccccc1)N1CCCC1)c1ccccc1 | > 100 | > 100 | > 100 | > 100 | > 100 | > 100 | > 100 | > 100 | > 100 | > 100 | – | > 100 | > 100 | 92.4 | > 100 | > 100 | > 100 | > 100 | > 100 | > 100 |
| Cc1ccc(S(=O)(=O)NNC2Oc3cc4c(cc3C(c3ccccc3O)C2C)OCO4)cc1 (stereo not given) | 29.5 | 29.5 | 33.4 | 22.8 | 34.5 | 23.8 | 23 | 50.2 | 32.8 | 29.2 | 33.3 | 26.2 | 28.9 | 27.6 | 26.5 | 27.3 | 32 | – | 42.7 | 26 |
| Cc1ccc(S(=O)(=O)NCCCSCCSCCCN)cc1 | > 100 | > 100 | > 100 | – | > 100 | – | > 100 | > 100 | > 100 | > 100 | – | > 100 | – | > 100 | > 100 | > 100 | > 100 | > 100 | > 100 | > 100 |
| COc1cc(C(=O)Nc2cc(C(N)=O)cc(OC)c2OC)cc(NC(=O)/C=C/c2ccccc2)c1OC | – | > 100 | > 100 | – | > 100 | > 100 | > 100 | > 100 | – | > 100 | > 100 | – | – | > 100 | > 100 | > 100 | > 100 | > 100 | > 100 | > 100 |
